Laboratory results published in the NIST ThermoML archive (doi:10.1021/je034048e).

Test: molar heat capacity at constant pressure
Settings: 101.33 kPa

CCCCCCCC/C=C/CCCCCCCC(=O)OCC(COC(=O)CCCCCCC/C=C/CCCCCCCC)OC(=O)CCCCCCC/C=C/CCCCCCCC [trielaidin]
Small (less than 1 g) adiabatic calorimetry
Settings	molar heat capacity at constant pressure [J/K/mol]
8.85 K, Metastable crystal	2.656
9.73 K, Metastable crystal	8.854
10.55 K, Metastable crystal	11.51
11.43 K, Metastable crystal	19.48
12.54 K, Metastable crystal	24.79
13.08 K, Metastable crystal	28.33
14.42 K, Metastable crystal	36.3
14.92 K, Metastable crystal	40.73
16.44 K, Metastable crystal	50.47
16.93 K, Metastable crystal	56.67
18.55 K, Metastable crystal	70.83
18.95 K, Metastable crystal	75.26
20 K, Crystal	79.69
20 K, Metastable crystal	88.54
20.71 K, Metastable crystal	89.43
21.09 K, Metastable crystal	93.86
22.99 K, Metastable crystal	110.68
23.34 K, Metastable crystal	113.34
25 K, Crystal	115.11
25 K, Metastable crystal	123.96
25.34 K, Metastable crystal	130.16
25.67 K, Metastable crystal	134.59
27.78 K, Metastable crystal	148.75
28.07 K, Metastable crystal	150.52
30 K, Crystal	168.23
30 K, Metastable crystal	168.23
30.29 K, Metastable crystal	168.23
30.55 K, Metastable crystal	171.77
31.33 K, Metastable crystal	184.17
31.83 K, Metastable crystal	196.57
33.13 K, Metastable crystal	197.45
33.17 K, Metastable crystal	195.68
35 K, Crystal	203.65
35 K, Metastable crystal	212.5
35.4 K, Metastable crystal	219.59
37.51 K, Metastable crystal	236.41
39.64 K, Metastable crystal	254.12
40 K, Crystal	247.92
40 K, Metastable crystal	256.78
41.87 K, Metastable crystal	272.71
44.15 K, Metastable crystal	292.19
45 K, Crystal	292.19
45 K, Metastable crystal	301.05
46.49 K, Metastable crystal	312.56
48.88 K, Metastable crystal	332.92
50 K, Crystal	327.61
50 K, Metastable crystal	345.32
51.31 K, Metastable crystal	350.63
53.78 K, Metastable crystal	370.11
55 K, Crystal	371.88
55 K, Metastable crystal	380.74
56.3 K, Metastable crystal	393.13
58.84 K, Metastable crystal	412.61
60 K, Crystal	407.3
60 K, Metastable crystal	416.15
61.42 K, Metastable crystal	425.89
65 K, Crystal	442.72
65 K, Metastable crystal	451.57
66.67 K, Metastable crystal	466.62
69.33 K, Metastable crystal	480.79
70 K, Crystal	469.28
70 K, Metastable crystal	486.99
72.01 K, Metastable crystal	500.27
74.71 K, Metastable crystal	516.21
75 K, Crystal	504.7
75 K, Metastable crystal	522.4
77.43 K, Metastable crystal	531.26
80 K, Crystal	531.26
80 K, Metastable crystal	548.97
80.16 K, Metastable crystal	548.08
82.91 K, Metastable crystal	563.13
85 K, Crystal	557.82
85 K, Metastable crystal	575.53
85.67 K, Metastable crystal	580.84
88.45 K, Metastable crystal	595.01
90 K, Crystal	584.39
90 K, Metastable crystal	602.09
91.24 K, Metastable crystal	610.06
94.03 K, Metastable crystal	625.12
95 K, Crystal	610.95
95 K, Metastable crystal	628.66
96.84 K, Metastable crystal	639.28
99.66 K, Metastable crystal	654.33
100 K, Crystal	637.51
100 K, Metastable crystal	655.22
100.5 K, Metastable crystal	656.99
103.85 K, Metastable crystal	678.24
105 K, Crystal	655.22
105 K, Metastable crystal	681.78
106.65 K, Metastable crystal	689.75
109.51 K, Metastable crystal	701.26
110 K, Crystal	672.93
110 K, Metastable crystal	708.35
112.39 K, Metastable crystal	714.54
115.27 K, Metastable crystal	726.94
118.14 K, Metastable crystal	740.22
120 K, Crystal	717.2
120 K, Metastable crystal	752.62
121.03 K, Metastable crystal	753.5
123.91 K, Metastable crystal	765.9
126.79 K, Metastable crystal	778.29
129.68 K, Metastable crystal	792.46
130 K, Crystal	761.47
130 K, Metastable crystal	796.89
132.57 K, Metastable crystal	805.74
135.47 K, Metastable crystal	812.83
138.36 K, Metastable crystal	826.99
140 K, Crystal	788.03
140 K, Metastable crystal	832.31
141.26 K, Metastable crystal	842.93
144.16 K, Metastable crystal	850.01
147.07 K, Metastable crystal	864.18
149.97 K, Metastable crystal	875.69
150 K, Crystal	823.45
150 K, Metastable crystal	876.58
152.88 K, Metastable crystal	887.2
155.78 K, Metastable crystal	906.68
158.69 K, Metastable crystal	917.31
160 K, Crystal	867.72
160 K, Metastable crystal	920.85
161.6 K, Metastable crystal	932.36
164.51 K, Metastable crystal	946.53
167.42 K, Metastable crystal	962.46
170 K, Crystal	912
170 K, Metastable crystal	973.98
170.34 K, Metastable crystal	977.52
176.16 K, Metastable crystal	1009.4
179.08 K, Metastable crystal	1022.7
180 K, Crystal	947.41
180 K, Metastable crystal	1027.1
181.99 K, Metastable crystal	1043
184.9 K, Metastable crystal	1066.1
187.79 K, Metastable crystal	1080.2
190 K, Crystal	991.68
190 K, Metastable crystal	1097.9
190.66 K, Metastable crystal	1104.1
193.5 K, Metastable crystal	1125.4
196.32 K, Metastable crystal	1147.5
199.11 K, Metastable crystal	1169.7
200 K, Crystal	1036
200 K, Metastable crystal	1177.6
201.89 K, Metastable crystal	1191.8
204.65 K, Metastable crystal	1213.9
207.38 K, Metastable crystal	1237.8
210 K, Crystal	1071.4
210 K, Metastable crystal	1257.3
210.1 K, Metastable crystal	1260
212.79 K, Metastable crystal	1280.3
215.47 K, Metastable crystal	1303.4
218.13 K, Metastable crystal	1322.8
220 K, Crystal	1115.6
220 K, Metastable crystal	1337
220.78 K, Metastable crystal	1343.2
223.41 K, Metastable crystal	1362.7
226.02 K, Metastable crystal	1384.8
228.62 K, Metastable crystal	1405.2
230 K, Crystal	1159.9
230 K, Metastable crystal	1416.7
231.2 K, Metastable crystal	1423.8
233.77 K, Metastable crystal	1443.3
236.32 K, Metastable crystal	1463.6
238.87 K, Metastable crystal	1484
240 K, Crystal	1213
240 K, Metastable crystal	1496.4
241.4 K, Metastable crystal	1503.5
243.91 K, Metastable crystal	1523.8
246.41 K, Metastable crystal	1545.1
248.9 K, Metastable crystal	1565.4
250 K, Crystal	1266.2
250 K, Metastable crystal	1576.1
251.38 K, Metastable crystal	1586.7
253.84 K, Metastable crystal	1607.9
256.3 K, Metastable crystal	1629.2
258.74 K, Metastable crystal	1653.1
260 K, Crystal	1319.3
260 K, Metastable crystal	1664.6
261.18 K, Metastable crystal	1675.2
263.6 K, Metastable crystal	1697.4
266.01 K, Metastable crystal	1717.7
268.41 K, Metastable crystal	1732.8
270 K, Crystal	1390.1
270 K, Metastable crystal	1744.3
270.81 K, Metastable crystal	1742.5
273.2 K, Metastable crystal	1738.1
280 K, Crystal	1469.8
280 K, Metastable crystal	1815.1
288 K, Crystal	1549.5
288 K, Metastable crystal	1886
290 K, Crystal	1558.4
298.15 K, Crystal	1646.9
300 K, Crystal	1673.5
310 K, Crystal	1762
314.83 K, Crystal	1806.3
314.83 K, Liquid	1877.1
317.71 K, Liquid	1884.2
318.99 K, Liquid	1886.9
320 K, Liquid	1894.8
320.03 K, Liquid	1891.3
321 K, Liquid	1895.7
322.34 K, Liquid	1893.9
323.01 K, Liquid	1896.6
324.66 K, Liquid	1901.9
325.03 K, Liquid	1902.8
326.98 K, Liquid	1907.2
327.05 K, Liquid	1906.3
329.07 K, Liquid	1911.6
329.29 K, Liquid	1913.4
330 K, Liquid	1912.5
331.09 K, Liquid	1916.1
331.61 K, Liquid	1918.7
333.11 K, Liquid	1918.7
333.92 K, Liquid	1922.3
335.13 K, Liquid	1922.3
336.24 K, Liquid	1926.7
337.15 K, Liquid	1926.7
338.55 K, Liquid	1932.9
339.17 K, Liquid	1933.8
340.87 K, Liquid	1940.9
343.19 K, Liquid	1946.2
345.51 K, Liquid	1950.6
347.83 K, Liquid	1954.1
350.15 K, Liquid	1963

Crystal
Settings	molar heat capacity at constant pressure [J/K/mol]
10.52 K	3.542
11.9 K	8.854
12.76 K	23.91
14.41 K	29.22
16.16 K	44.27
17.98 K	59.32
19.96 K	75.26
22.02 K	93.86
24.22 K	111.56
26.5 K	130.16
28.88 K	149.64
35.94 K	215.16
38.34 K	255
40.46 K	267.4
42.73 K	264.74
45.11 K	290.42
47.47 K	311.67
49.86 K	329.38
52.29 K	347.97
54.77 K	367.45
57.28 K	389.59
59.83 K	409.07
62.4 K	409.96
65.01 K	435.63
67.64 K	457.77
70.3 K	473.71
72.97 K	489.64
75.67 K	503.81
78.39 K	521.52
81.12 K	535.69
83.86 K	550.74
86.62 K	565.79
89.39 K	580.84
92.18 K	595.01
95.56 K	609.18
99.01 K	629.54
104.65 K	654.33
107.48 K	666.73
110.32 K	677.36
113.16 K	689.75
116 K	701.26
118.85 K	713.66
121.7 K	725.17
124.56 K	734.02
127.41 K	742.88
130.27 K	758.82
133.13 K	766.78
135.99 K	775.64
138.85 K	786.26
141.71 K	796
144.57 K	804.86
147.42 K	815.48
150.23 K	826.99
153.02 K	837.62
155.77 K	850.01
158.51 K	861.53
161.21 K	871.27
163.89 K	883.66
166.55 K	893.4
169.18 K	904.91
171.79 K	914.65
174.38 K	927.05
176.95 K	936.79
179.5 K	947.41
182.03 K	958.04
184.54 K	970.43
187.03 K	978.4
189.51 K	989.03
191.97 K	998.77
194.42 K	1008.5
196.84 K	1020
199.25 K	1028.9
201.65 K	1037.7
206.39 K	1058.1
208.74 K	1067.8
211.08 K	1077.6
213.41 K	1087.3
215.72 K	1097.9
218.01 K	1108.6
220.3 K	1117.4
222.57 K	1127.2
224.83 K	1137.8
227.07 K	1149.3
229.31 K	1160.8
231.53 K	1169.7
233.74 K	1180.3
235.94 K	1190.9
238.13 K	1201.5
240.31 K	1212.2
242.48 K	1222.8
244.64 K	1235.2
246.79 K	1245.8
248.93 K	1256.4
251.06 K	1268.8
253.19 K	1279.4
255.3 K	1292.7
257.41 K	1305.1
259.5 K	1320.2
261.59 K	1332.6
263.67 K	1345.9
265.75 K	1360.9
267.81 K	1374.2
269.86 K	1389.2
271.91 K	1403.4
273.95 K	1419.3
275.98 K	1437.9
278 K	1454.8
280.02 K	1471.6
282.03 K	1489.3
284.04 K	1509.7
288.03 K	1543.3
290.02 K	1560.1
292 K	1580.5
293.98 K	1601.7
295.95 K	1622.1
297.92 K	1646.9
299.88 K	1669.9
301.84 K	1708.9
303.79 K	1742.5
305.74 K	1795.7
307.67 K	1890.4
309.58 K	2118.8
